Laboratory results as given in patent US7763656B2, “Use of Acetylamino benzoic acid compounds for nonsense suppression and the treatment of disease” (PTC Therapeutics, Inc., priority 2002, dated 2010).

Tests used:
[1] = system: luciferase reporter construct containing a UGA premature termination codon stably transfected in 293T Human Embryonic Kidney cells; test: cell-based luciferase reporter assay (UGA premature termination codon); conditions: for Activity: ranking combining potency (minimum concentration to produce protein) and efficacy (maximum protein produced), 293T cells, UGA luciferase reporter, gentamicin internal standard
Protocol: Melting points in Table 1 were obtained on an Electrothermal MeltTemp apparatus and are uncorrected. Activity measurements in Table 1 were performed in a cell-based luciferase reporter assay (as described in Section 4.2) comprising a luciferase reporter construct containing a UGA premature termination codon that was stably transfected in 293T Human Embryonic Kidney cells. Gentamicin, a small molecule known to allow readthrough of premature termination codons, was used as an internal standard. Activity measurements are based on the qualitative relation between the minimum concentration of compound required to produce a given protein in a cell (potency) and the maximum amount of protein produced by the cell (efficacy). Potency and efficacy activities are ranked as either extremely high, very high or significant. The combination of these activities is used to determine the activity ranking.
(§1) Two assays were developed for use in high throughput screens to identify small molecules that promote nonsense suppression. Each assay utilized luciferase because it is a functional reporter gene assay (light is only produced if the protein is functional) and it is extremely sensitive (Light intensity is proportional to luciferase concentration in the nM range). The first assay is a cell-based luciferase reporter assay and the second is a biochemical assay consisting of rabbit reticulocyte lysate and a nonsense-containing luciferase reporter mRNA. In the cell-based assay, a luciferase reporter construct containing a UGA premature termination codon was stably transfected in 293T Human Embryonic Kidney cells. In the biochemical assay, mRNA containing a UGA premature termination codon was used as a reporter in an in vitro translation reaction using rabbit reticulocyte lysate supplemented with tRNA, hemin, creatine kinase, amino acids, KOAc, Mg(OAc)2, and creatine phosphate. […] Synthetic mRNA was prepared in vitro using the T7 promoter and the MegaScript in vitro transcription kit (Ambion).
To determine whether compounds also function in vivo, a stable cell line harboring the UGA nonsense-containing luciferase gene was treated with selected compounds. Cells were grown in standard medium supplemented with 1% penicillin-streptomycin (P/S) and 10% fetal bovine serum (FBS) to 70% confluency and split 1:1 the day before treatment. On the following day, cells were trypsinized and 40,000 cells were added to each well of a 96-well tissue culture dish. Serial dilutions of each compound were prepared to generate a six-point dose response curve spanning 2 logs (30 μM to 0.3 μM). The final concentration of the DMSO solvent remained constant at 1% in each well. Cells treated with 1% DMSO served as the background standard, and cells treated with gentamicin served as a positive control.

[2] = system: nonsense-containing luciferase reporter mRNA (UGA premature termination codon) in rabbit reticulocyte lysate; test: biochemical luciferase nonsense suppression assay (in vitro translation); conditions: internal standard
Source text: as §1

[3] = system: tripeptidyl-peptidase 1 (TPP-I) in patient-derived LINCL cell line; conditions: patient-derived cell line compound heterozygous for Arg208Stop and another nonsense mutation; maximal; cited from earlier work
[4] = system: dystrophin premature stop codon in mdx mice; conditions: cited from earlier work

Row | melting point [°C] | Compound | further results
1 | 148 to 171 | Cc1cc(OCC(=O)Nc2cccc(C(=O)O)c2C)ccc1C(C)C [Compound 59, 3-[2-(4-Isopropyl-3-methyl-phenoxy)-acetylamino]-2-methyl-benzoic acid] | –
2 | 202 to 203 | CCOC(=O)/C=C/c1ccc(OCC(=O)Nc2cccc(C(=O)O)c2)cc1 [Compound 60, 3-{2-[4-(2-Ethoxycarbonyl-vinyl)-phenoxy]-acetylamino}-benzoic acid] | –
3 | 208 to 210 | O=C(COc1ccc(OCc2ccccc2)cc1)Nc1cccc(C(=O)O)c1 [Compound 61, 3-[2-(4-Benzyloxy-phenoxy)-acetylamino]-benzoic acid] | –
4 | 210 to 213 | N#Cc1ccc(OCC(=O)Nc2cccc(C(=O)O)c2)cc1 [Compound 62, 3-[2-(4-Cyano-phenoxy)-acetylamino]-benzoic acid] | –
5 | 284 to 285 | O=C(COc1ccc(Nc2ccc([N+](=O)[O-])cn2)cc1)Nc1cccc(C(=O)O)c1 [Compound 63, 3-{2-[4-(5-Nitro-pyridin-2-ylamino)-phenoxy]-acetylamino}-benzoic acid] | –
6 | 260 to 262 | O=C(COc1ccc(NC(=O)c2ccccc2)cc1)Nc1cccc(C(=O)O)c1 [Compound 64, 3-[2-(4-Benzoylamino-phenoxy)-acetylamino]-benzoic acid] | –
7 | 214 to 215 | O=C(COc1ccc(Nc2ccccc2)cc1)Nc1cccc(C(=O)O)c1 [Compound 65, 3-[2-(4-Phenylamino-phenoxy)-acetylamino]-benzoic acid] | –
8 | 189 to 191 | O=C(COc1cccc(Nc2ccccc2)c1)Nc1cccc(C(=O)O)c1 [Compound 66, 3-[2-(3-Phenylamino-phenoxy)-acetylamino]-benzoic acid] | –
9 | 237 to 238 | O=C(COc1ccc(Nc2ccc([N+](=O)[O-])cc2[N+](=O)[O-])cc1)Nc1cccc(C(=O)O)c1 [Compound 67, 3-{2-[4-(2,4-Dinitro-phenylamino)-phenoxy]-acetylamino}-benzoic acid] | –
10 | 189 to 190 | O=C(COc1ccc(Oc2ccc(C(F)(F)F)cc2)cc1)Nc1cccc(C(=O)O)c1 [Compound 68, 3-{2-[4-(4-Trifluoromethyl-phenoxy)-phenoxy]-acetylamino}-benzoic acid] | –
11 | 205 to 209 | O=C(COc1ccc(Cc2ccccc2)cc1)Nc1cccc(C(=O)O)c1 [Compound 69, 3-[2-(4-Benzyl-phenoxy)-acetylamino]-benzoic acid] | –
12 | 202 to 205 | O=C(COc1ccc(Oc2ccccc2)cc1)Nc1cccc(C(=O)O)c1 [Compound 70, 3-[2-(4-Phenoxy-phenoxy)-acetylamino]-benzoic acid] | –
13 | 233 to 236 | O=C(COc1ccc([N+](=O)[O-])cn1)Nc1cccc(C(=O)O)c1 [Compound 71, 3-[2-(5-Nitro-pyridin-2-yloxy)-acetylamino]-benzoic acid] | Activity [1]: 0
14 | 238 to 240 | O=C(COc1ccc(CN2C(=O)c3ccccc3C2=O)cc1)Nc1cccc(C(=O)O)c1 [Compound 72] | –
15 | 194 to 196 | Cc1cc(C)nc(SCc2ccc(OCC(=O)Nc3cccc(C(=O)O)c3)cc2)n1 [Compound 74, 3-{2-[4-(4,6-Dimethyl-pyrimidin-2-ylsulfanylmethyl)-phenoxy]-acetylamino}-benzoic acid] | Activity [1]: 0
16 | 192 to 193 | O=C(O)c1cccc(N2CCC(Oc3ccc(Cl)cc3)C2=O)c1 (centres unmarked) [Compound 75, 3-[3-(4-Chloro-phenoxy)-2-oxo-pyrrolidin-1-yl]-benzoic acid] | –
17 | 196 to 197 | O=C(O)c1cccc(N2CCC(Oc3ccc(Br)cc3)C2=O)c1 (centres unmarked) [Compound 76, 3-[3-(4-Bromo-phenoxy)-2-oxo-pyrrolidin-1-yl]-benzoic acid] | –

Row | melting point [°C] | Compound | further results
18 | 245 to 247 | N#CCc1ccc(OCC(=O)Nc2cccc(C(=O)O)c2)cc1 [Compound 77, 3-[2-(4-Cyanomethyl-phenoxy)-acetylamino]-benzoic acid] | Activity [1]: 0
19 | 267 to 268 | O=C(COc1ccc(Cc2nn[nH]n2)cc1)Nc1cccc(C(=O)O)c1 [Compound 78, 3-{2-[4-(2H-Tetrazol-5-ylmethyl)-phenoxy]-acetylamino}-benzoic acid] | –
20 | 170 to 171 | CC(C)c1ccc(COC2CCN(c3cccc(C(=O)O)c3)C2=O)cc1 (centres unmarked) [Compound 79, 3-[3-(4-Isopropyl-benzyloxy)-2-oxo-pyrrolidin-1-yl]-benzoic acid] | –
21 | 207 to 210 | O=C(COc1ccc(Cc2nnc(-c3ccccc3)o2)cc1)Nc1cccc(C(=O)O)c1 [Compound 80, 3-{2-[4-(5-Phenyl-[1,3,4]oxadiazol-2-ylmethyl)-phenoxy]-acetylamino}-benzoic acid] | Activity [1]: 0
22 | 178 to 180 | O=C(O)c1cccc(N2CCC(Oc3ccc([N+](=O)[O-])cc3)C2=O)c1 (centres unmarked) [Compound 81, 3-[3-(4-Nitro-phenoxy)-2-oxo-pyrrolidin-1-yl]-benzoic acid] | Activity [1]: 0
23 | 198 to 201 | COc1ccc(OC2CCN(c3cccc(C(=O)O)c3)C2=O)cc1 (centres unmarked) [Compound 82, 3-[3-(4-Methoxy-phenoxy)-2-oxo-pyrrolidin-1-yl]-benzoic acid] | Activity [1]: 0
24 | 194 to 195 | CCc1ccc(OC2CCN(c3cccc(C(=O)O)c3)C2=O)cc1 (centres unmarked) [Compound 83, 3-[3-(4-Ethyl-phenoxy)-2-oxo-pyrrolidin-1-yl]-benzoic acid] | –
25 | 185 to 187 | Cc1ccc(OC2CCN(c3cccc(C(=O)O)c3)C2=O)cc1 (centres unmarked) [Compound 84, 3-[3-(4-Methyl-phenoxy)-2-oxo-pyrrolidin-1-yl]-benzoic acid] | –
26 | 190 to 191 | Cc1c(F)cc(OC2CCN(c3cccc(C(=O)O)c3)C2=O)c(F)c1F (centres unmarked) [Compound 85, 3-[2-Oxo-3-(2,3,5-trifluoro-4-methyl-phenoxy)-pyrrolidin-1-yl]-benzoic acid] | –
27 | 190 to 191 | O=C(O)c1cccc(N2CCC(Oc3ccc(OC(F)(F)F)cc3)C2=O)c1 (centres unmarked) [Compound 86, 3-[2-Oxo-3-(4-trifluoromethoxy-phenoxy)-pyrrolidin-1-yl]-benzoic acid] | –
28 | 134 to 138 | Cc1cc(OC2CCN(c3cccc(C(=O)O)c3)C2=O)cc(C(C)C)c1 (centres unmarked) [Compound 87, 3-[3-(3-Isopropyl-5-methyl-phenoxy)-2-oxo-pyrrolidin-1-yl]-benzoic acid] | –
29 | 238 to 241 | CC(C)(C)c1ccc(OC2CCN(c3cccc(C(=O)O)c3)C2=O)cc1 (centres unmarked) [Compound 88, 3-[3-(4-tert-Butyl-phenoxy)-2-oxo-pyrrolidin-1-yl]-benzoic acid] | Activity [1]: 0
30 | 201 to 205 | Cc1ccc(OC2CCN(c3cccc(C(=O)O)c3)C2=O)cc1C (centres unmarked) [Compound 89, 3-[3-(3,4-Dimethyl-phenoxy)-2-oxo-pyrrolidin-1-yl]-benzoic acid] | –
31 | 174 to 175 | Cc1cc(OCC(=O)Nc2cc(C(=O)O)ccc2Cl)ccc1C(C)C [Example 4, 4-CHLORO-3-[2-(4-ISOPROPYL-3-METHYL-PHENOXY)-ACETYLAMINO]-BENZOIC ACID] | –
32 | – | gentamicin | luciferase activity ([1]; cell-based assay, internal standard): increased luciferase activity; luciferase activity [2]: increased luciferase activity; TPP-I restored [3]: approximately 7 % of normal levels of TPP-I
33 | – | gentamicin sulfate | suppression of translational termination at premature stop codon (dystrophin) [4]: full length dystrophin

Row | Compound | melting point [°C] | further results
34 | O=C(COc1ccc(COCCCCN2C(=O)c3ccccc3C2=O)cc1)Nc1cccc(C(=O)O)c1 [Compound 73, 3-(2-{4-[4-(1,3-Dioxo-1,3-dihydro-isoindol-2-yl)-butoxymethyl]-phenoxy}-acetylamino)-benzoic acid] | 95 to 100 | Activity [1]: 0
